In patent US9096536B2, “Asymmetrically substituted anthrapyridazone derivatives as cytostatics” (BS-154 S.P. ZO.O., priority 2011, dated 2015):

Assays:
[1] = tested on: human prostate cancer cell line LNCaP; test: Cytostatic activity in vitro, prostate cancer LNCaP; type: cell-based; details: 72 h continuous exposure
Description: (§1) Table 5 presents activity in vitro of anthrapiridazone derivatives towards three cell lines of prostate cancer, naturally multidrug resistant, in comparison with references doxorubicin, mitoxantrone and taxol.

[2] = tested on: human prostate cancer cell line DU145; test: Cytostatic activity in vitro, prostate cancer DU145; type: cell-based; details: 72 h continuous exposure
Description: as §1

[3] = tested on: human prostate cancer cell line PC3; test: Cytostatic activity in vitro, prostate cancer PC3; type: cell-based; details: 72 h continuous exposure
Description: as §1

[4] = tested on: human promyelocytic leukemia cell line HL-60; test: Cytostatic activity in vitro, HL-60 sensitive line; type: cell-based; details: 50% inhibition of cell growth after 72 h continuous exposure; read-out: HL60 IC50
Description: (§2) Tables 3 and 4 show cytostatic activity in vitro of 2,6-disubstituted and 2- or 6-monosubstituted (Tab.3), and of 2,5-disubstituted-(Tab.-4) tetracyclic anthrapyridazone derivatives using leukemia cell line HL-60 and the resistant cell sublines with resistance induced by vincristine (MDR-1) or doxorubicin (MRP). Activity of compounds is differentiated depending on their structure, but in all cases resistance indexes are more advantageous in comparison with reference compounds: doxorubicin and mitoxantrone.

[5] = tested on: HL60/DX; test: Cytostatic activity in vitro, doxorubicin-induced resistant subline (MRP); type: cell-based, human; details: for IC50: 72 h continuous exposure; for RI resistance index HL60/DX: IC50(resistant cells)/IC50(sensitive cells), HL60/DX vs HL60, 72 h
Description: as §2

[6] = tested on: CT-DNA; test: Interaction with isolated CT-DNA, fluorescence competition with ethidium bromide; type: binding; details: for IC50: 50% decrease in fluorescence intensity of DNA-bromide ethydine complex; for Kapp relative constant of DNA-compound bonding: Kapp = (1.26/C50) × KEtBr, KEtBr = 10^7M
Description: It could be supposed that this property explains cytostatic activity of compounds. In Table 9 there are presented quantitative data on the affinity to DNA of tested compounds using the fluorescence method and competitive affinity to DNA of bromine ethydine and tested compounds.

[7] = tested on: HL60/VINC; test: Cytostatic activity in vitro, vincristine-induced resistant subline (MDR-1); type: cell-based, human; details: for IC50: 72 h continuous exposure; for RI resistance index HL60/VINC: IC50(resistant cells)/IC50(sensitive cells), HL60/VINC vs HL60, 72 h
Description: as §2

Compound: CC(=O)NCCCNc1ccc2c(=O)n(CCN(C)C)nc3c2c1C(=O)c1ccccc1-3 [PDZ-13, 2-[2-(Dimethylamino)ethyl]-6-[(3-acetylaminopropyl)amino]-2,7-dihydro-3H-dibenzo [de,h]cynnoline-3,7-dione]
- IC50 [1]: 50.7 ± 10.2 nM
- IC50 [2]: 36.7 ± 7.4 nM
- IC50 [3]: 106 ± 5.7 nM
- IC50 [4]: 13 ± 1 nM
- IC50 [5]: 3240 ± 558 nM
- RI resistance index HL60/DX [5]: 249.2
- IC50 [6]: 1840 ± 160 nM
- Kapp relative constant of DNA-compound bonding [6]: 6.8e+06 M⁻¹
- IC50 [7]: 421 ± 24 nM
- RI resistance index HL60/VINC [7]: 32.4

Compound: CC(=O)Nc1ccc2c(=O)n(CCN(C)C)nc3c2c1C(=O)c1ccccc1-3 [PDZ-14, 2-[2-(Dimethylamino)ethyl]-6-(acetylamino)-2,7-dihydro-3H-dibenzo[de,h]cynnoline-3,7-dione]
- IC50 [1]: 44.8 ± 5.6 nM
- IC50 [2]: 32.8 ± 1.4 nM
- IC50 [3]: 85.5 ± 10.1 nM
- IC50 [4]: 28 ± 6 nM
- IC50 [5]: 870 ± 173 nM
- RI resistance index HL60/DX [5]: 31.1
- IC50 [6]: 990 ± 10 nM
- Kapp relative constant of DNA-compound bonding [6]: 1.27e+07 M⁻¹
- IC50 [7]: 79 ± 7 nM
- RI resistance index HL60/VINC [7]: 2.8

Compound: CN(C)CCn1nc2c3c(cccc3c1=O)C(=O)c1ccccc1-2 [PDZ-15, 2-[2-(Dimethylamino)ethyl]-2,7-dihydro-3H-dibenzo[de,h]cynnoline-3,7-dione]
- IC50 [1]: 323 ± 34 nM
- IC50 [2]: 462 ± 52 nM
- IC50 [3]: 963 ± 171 nM
- IC50 [4]: 213 ± 64 nM
- IC50 [5]: 3060 ± 992 nM
- RI resistance index HL60/DX [5]: 14.4
- IC50 [6]: 3080 ± 190 nM
- Kapp relative constant of DNA-compound bonding [6]: 4.1e+06 M⁻¹
- IC50 [7]: 489 ± 68 nM
- RI resistance index HL60/VINC [7]: 2.3

Compound: O=C1c2ccccc2-c2nn(CCN3CCCCC3)c(=O)c3ccc(NCCNCc4ccccc4)c1c23 [PDZ-17, 2-[2-(Piperidinamino)ethyl]-6-(2-benzylaminoethylamino)-2,7-dihydro-3H-dibenzo [de,h]cynnoline-3,7-dione]
- IC50 [1]: 166 ± 40 nM
- IC50 [2]: 344 ± 43 nM
- IC50 [3]: 606 ± 38 nM
- IC50 [4]: 98 ± 19 nM
- IC50 [5]: 2870 ± 447 nM
- RI resistance index HL60/DX [5]: 29.3
- IC50 [6]: 460 ± 80 nM
- Kapp relative constant of DNA-compound bonding [6]: 2.72e+07 M⁻¹
- IC50 [7]: 477 ± 39 nM
- RI resistance index HL60/VINC [7]: 4.9

Compound: CCN(CC)CCNc1ccc2c(=O)[nH]nc3c2c1C(=O)c1ccccc1-3 [PDZ-18, 6-(2-Diethylaminoethyloamino)-2,7-dihydro-3H-dibenzo[de,h]cynnoline-3,7-dione]
- IC50 [1]: 465 ± 121 nM
- IC50 [2]: 418 ± 58 nM
- IC50 [3]: 974 ± 159 nM
- IC50 [4]: 115 ± 3 nM
- IC50 [5]: 3500 ± 752 nM
- RI resistance index HL60/DX [5]: 30.4
- IC50 [6]: 1960 ± 120 nM
- Kapp relative constant of DNA-compound bonding [6]: 6.4e+06 M⁻¹
- IC50 [7]: 597 ± 16 nM
- RI resistance index HL60/VINC [7]: 5.2

Compound: CN(C)CCn1nc2c3c(c(NCCCN)ccc3c1=O)C(=O)c1ccccc1-2 [PDZ-20, 2-[2-(Dimethylamino)ethyl]-6-[(3-aminopropyl)amino]-2,7-dihydro-3H-dibenzo [de,h]cynnoline-3,7-dione]
- IC50 [1]: 31.4 ± 4.6 nM
- IC50 [2]: 47.3 ± 11.5 nM
- IC50 [3]: 245 ± 36 nM
- IC50 [4]: 8.6 ± 0.9 nM
- IC50 [5]: 2600 ± 436 nM
- RI resistance index HL60/DX [5]: 302.2
- IC50 [6]: 220 ± 60 nM
- Kapp relative constant of DNA-compound bonding [6]: 5.79e+07 M⁻¹
- IC50 [7]: 82.2 ± 6.1 nM
- RI resistance index HL60/VINC [7]: 9.6
